The text below walks through data of patent publication US20240415878A1, “Compositions and Methods for Modulating Mitochondrial Function” (Board of Regents, The University of Texas System, priority 2021, published 2024).

In this assay the target is T1, human MRS2 (Homo sapiens, UniProt Q9HD23).
T1 construct: 6xHis (N, cleaved yes); made in house; host or cells: BL21 (DE3) codon+ Escherichia coli, pET-28a
T1 sequence (Q9HD23 58-443): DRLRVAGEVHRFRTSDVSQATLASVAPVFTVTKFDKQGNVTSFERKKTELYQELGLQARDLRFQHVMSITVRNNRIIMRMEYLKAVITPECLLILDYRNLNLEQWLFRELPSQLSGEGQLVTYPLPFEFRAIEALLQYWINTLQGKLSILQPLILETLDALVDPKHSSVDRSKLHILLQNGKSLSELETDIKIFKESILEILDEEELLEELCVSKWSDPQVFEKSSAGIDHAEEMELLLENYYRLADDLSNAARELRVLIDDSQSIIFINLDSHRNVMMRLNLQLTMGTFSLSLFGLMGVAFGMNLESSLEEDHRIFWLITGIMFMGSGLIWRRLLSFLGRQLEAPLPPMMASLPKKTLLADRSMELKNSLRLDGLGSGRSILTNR
In words: Dynamic light scattering of purified full-length MRS2 assembly. The assay is classed as binding. To be noted: 0.5 mM. As to the method:
Next, CPACC was assessed to determine if it directly affects the assembly of purified human MRS2 using dynamic light scattering (DLS). DLS has been used to determine whether the complex stability of proteins/channels is altered by molecular chaperones or drugs (Kitamura et al., 2006). Because of the high sensitivity of DLS to changes in complex sizes, full-length Mrs2 assembly was evaluated in the presence Ca^2+ (5 mM), Mg^2+ (5 mM), Co^2+ (5 mM) or the Mrs2 blocker CPACC (0.5 mM) (FIG. 10K, FIG. 10L, FIG. 10M, FIG. 10N, FIG. 10O). […] A concentration-response assessment confirmed robust decreases in hydrodynamic radii at all CPACC concentrations tested and as low as 10 μM (FIG. 10O).
MRS2 cloning, expression, and purification. The full length human MRS2 (NCBI accession NP_065713.1), identified as MRS258-443 (i.e. residues 58-443) and excluding the mitochondrial targeting sequence, was cloned into pET-28a using Ndel and Xhol restriction sites. […]
Dynamic light scattering (DIS). […] The sample was equilibrated for 5 min at 20° C. before 10 autocorrelation function acquisitions of 5 s each were recorded and averaged. […] The dependence of hydrodynamic size on CPACC concentration was determined using ≈0.5 mg/mL protein supplemented with 0.01 mM, 0.05 mM, 0.1 mM, 0.5 mM or 0.75 mM CPACC, using a similar experimental setup as described above and cumulants analysis.

Molecules are shown by their SMILES.

As to `[NH2][Co]([NH2])([NH2])([NH2])([NH2])[Cl]` [CPACC, chloropentaammine cobalt (III) chloride], the “full-length MRS2 complex sizes (DLS)” value is recorded as “potently decreased”.
